“And” between values parts separate entries of the source, which are not always exact repeats. Identical values can stand only once. “Also recorded” adds a separate entry of the source. Where no end group is shown, it is not given here. [ ]: non-standard residue; d: D form. The star is where a group is joined. FITC = O=C1OC2(c3ccc(O)cc3Oc3cc(O)ccc32)c2ccc(NC(=S)*)cc21; pT = C[C@@H](OP(=O)(O)O)[C@H](N)C(=O)O
How the values were obtained:
HeLa cells = assay: mitotic defect phenotypes by immunofluorescence; type: cell-based; conditions: 10 μM, 7 h
Procedure: HeLa cells were treated with these compounds along with the known PBD inhibitors PPG, TQ, Poloxin and the KD inhibitor BI2536 as controls, and then stained against α-Tubulin, pericentrin (a centrosome marker) and DNA (Fig. 2D). In all cases, there was a marked increase in the frequency of disorganized spindles compared with DMSO-treated control cells. This is expected as Plk1 plays multiple roles in spindle assembly and maintenance. […] Cpd 69, an analog of compound 122, induced a similar phenotype at lower concentrations (data not shown). This phenotype was not seen after treatment with BI2536.
For the mitotic defect phenotypes, 25 200 HeLa cells were plated on poly-L-lysine coated round cover slips in 24-well plates. The day after, cells were treated for 7 hours, and then washed with PHEM buffer at 37 °C before fixation in PHEM buffer containing 4% formaldehyde for 20 minutes at 37 °C. Cells were washed three times with TBS-tween 0.1% and plate was kept overnight at 4 °C. Next steps were followed as previously described except that coverslips were incubated in a dark wet chamber with antibodies. Anti-pericentrin (diluted 1:1000; Abcam), anti-α-tubulin DM1A (diluted 1:500; Sigma-Aldrich), Alexa Fluor 488 anti-rabbit and Texas-Red anti-mouse (diluted 1:200; Invitrogen) were used. Coverslips were mounted on slide using Vectashield media containing DAPI (Vector Laboratories).
Images shown in Fig. 2D were acquired on an AxioImager microscope (Carl Zeiss) with a 100x oil objective (NA 1.4 DICIII) and an AxioCam HRM camera (Carl Zeiss) using AxioVision software (Carl Zeiss).

[1] = reaction with amino-protected amino acids (LC-MS); conditions: room temperature
Procedure: Vinyl sulfones are reactive species that can alkylate substrates as a result of a nucleophilic attack on the distal carbon of the vinyl group. To evaluate the potential of Cpd 161 (vinyl sulfone) to react with proteins, we tested its reaction with nucleophilic amino acid side chains groups. […] To test whether Cpd 161 could react covalently with the PBD, we incubated them together and examined the molecular mass of the protein by SDS-PAGE (Fig. 7). […] Consistent with this idea, the extent of the shift depended on the concentration of Cpd 161 used (Fig. 7B) and also on the incubation time (Fig. 7C).
To a stirred solution of electrophile (0.02 mmol) and amino acid (1- 1.5eq) in DMF (0.3 ml) were added a few drops of a diluted aqueous solution of sodium bicarbonate. The reaction was monitored using an Agilent 6120 Quadrupole LC/MS system (Agilent Technologies). In all cases, the molecular ion of the product was observed.

mitosis = conditions: cited from earlier work
PBD of Plk1 = PBD of Plk1 (Homo sapiens, UniProt P53350); assay: fluorescence polarization assay PBD-Map peptide; type: binding
PBD of Plk1, sequence (P53350 367-603 limits assumed): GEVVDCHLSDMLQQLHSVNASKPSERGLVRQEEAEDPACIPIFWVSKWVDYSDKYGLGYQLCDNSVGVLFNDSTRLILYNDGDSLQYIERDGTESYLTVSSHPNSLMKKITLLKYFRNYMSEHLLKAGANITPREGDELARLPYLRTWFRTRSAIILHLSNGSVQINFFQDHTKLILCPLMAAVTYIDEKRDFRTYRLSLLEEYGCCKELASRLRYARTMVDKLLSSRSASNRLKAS
Procedure: The FP buffer was composed of 10 mM Tris pH 8.0, 50 mM NaCl, 1 mM EDTA, 20% glycerol and 0.1% NP-40. The peptide (final concentration 10 nM) was always added to the wells of non-binding, black, 384-well plates, 1 hour after the addition of the protein with the buffer (+/− treatment, 10% DMSO). […] EC65s were used to perform the competitive assays with the non-labeled peptides and with the inhibitors. FP Inhibition was calculated with the formula: 100 − [((mPsample − mPfree peptide)\(mPDMSO − mPfree peptide)) × 100]. […] (Map peptide), and corresponding non-labeled peptides are identical but without FITC in N-terminal. […] Inhibition curves were fitted with GraphPad (Prism software).

PBD = tested on: PBD; design: method as in PMID 19033445; conditions: cited from earlier work
Plk1-Map interaction = Plk1-Map interaction (Homo sapiens, UniProt P53350); assay: LUMIER co-immunoprecipitation assay Plk1-Map
Plk1-Map interaction, sequence (P53350 whole entry): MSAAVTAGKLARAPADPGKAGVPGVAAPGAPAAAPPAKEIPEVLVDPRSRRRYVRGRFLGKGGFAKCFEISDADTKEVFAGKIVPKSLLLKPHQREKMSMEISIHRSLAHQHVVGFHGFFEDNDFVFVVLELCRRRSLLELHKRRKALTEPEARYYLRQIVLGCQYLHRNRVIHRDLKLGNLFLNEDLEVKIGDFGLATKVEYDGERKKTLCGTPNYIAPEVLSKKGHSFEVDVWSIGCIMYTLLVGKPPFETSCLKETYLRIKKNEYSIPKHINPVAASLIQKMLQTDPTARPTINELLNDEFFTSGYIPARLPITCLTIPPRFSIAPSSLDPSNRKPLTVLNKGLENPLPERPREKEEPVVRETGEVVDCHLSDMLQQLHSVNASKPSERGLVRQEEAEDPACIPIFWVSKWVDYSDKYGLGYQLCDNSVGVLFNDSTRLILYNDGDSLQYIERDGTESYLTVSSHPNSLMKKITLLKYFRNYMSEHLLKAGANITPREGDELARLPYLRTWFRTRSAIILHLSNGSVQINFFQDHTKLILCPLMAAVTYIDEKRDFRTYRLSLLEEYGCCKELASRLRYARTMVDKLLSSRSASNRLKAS
Procedure: After cell lysis, GFP-Plk1 was immunoprecipitated and co-purified Map-Luc was measured by luminescence following addition of the luciferase substrate, coelenterazine.
Half a million stably transfected Map205-RLucII/GFP10-Plk1 cells in Tyrode solution were seeded per well in a 96-well plate and allowed to settle for 30 min at 37 °C. […] Plates were then centrifuged at 4 °C at 3000 rpm for 5 minutes to pellet cells. Cells were then lysed with the IP buffer (20 mM Tris pH 7.5, 150 mM NaCl, 2 mM EGTA, 0.5% NP-40, 1 mM DTT, PMSF, aprotinin and leupeptin) and incubated on ice for 20 minutes. Plates were centrifuged again at 4 °C at 3400 rpm for 10 minutes, and the soluble fraction was transferred into a new 96-well plate. Note that 10 μl of this fraction was transferred in white 96-well plates from which the luminescence was read as a measure of the input amount of cell lysate for the co-IP. GFP-Plk1 was immunoprecipitated by adding 0.35 μl of anti-GFP antibody (Invitrogen). Plates were sealed and incubated on a rotator at 4 °C for 30 minutes. Then, 4 μl of pre-washed protein A magnetic beads (Invitrogen) were added to each well. Plates were sealed and incubated at 4 °C for 1h30. The extracts + beads were then transferred in a 96-well PCR plates and beads were washed 3 times with the IP buffer using a magnetic 96-well rack. The fourth wash was done in Tyrode solution, then beads were re-suspended with it and transferred in a white 96-well plate. […] Tyrode was also added to the plates containing the input fraction, then Coelenterazine h was added to the wells, and enhanced luminescence was read as described above.

GST-PBD367-603 of Plk1 = GST-PBD367-603 of Plk1 (Homo sapiens, UniProt P53350); assay: fluorescence polarization assay PBD-phosphopeptide
GST-PBD367-603 of Plk1, sequence (P53350 367-603): as the sequence (P53350 367-603 limits assumed) above
Description: In this assay, an optimal phosphopeptide for PBD binding is coupled with a FITC fluorophore and its binding to purified recombinant PBD of Plk1 is monitored by the change in polarization of incident light.

His-PBD326-603 [2] = target: T1, His-PBD326-603 (Homo sapiens, UniProt P53350); assay: alkylation sites on the PBD by LC-MS/MS
T1 sequence (P53350 326-603): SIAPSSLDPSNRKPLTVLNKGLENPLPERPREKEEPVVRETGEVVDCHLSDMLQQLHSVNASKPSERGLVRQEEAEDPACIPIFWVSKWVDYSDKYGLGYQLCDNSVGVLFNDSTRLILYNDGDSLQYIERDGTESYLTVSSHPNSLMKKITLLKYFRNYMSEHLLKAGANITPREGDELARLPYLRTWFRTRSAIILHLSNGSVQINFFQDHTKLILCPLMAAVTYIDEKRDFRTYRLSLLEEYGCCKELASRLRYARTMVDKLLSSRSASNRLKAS
Procedure: Proteins were precipitated using acetone and resuspended in 100 μl. Sample reduction was performed by adding 50 μl of 5 mM TCEP in 50 mM ammonium bicarbonate. Samples were then added 50 μl of chloroacetamide 50 mM with ammonium bicarbonate 50 mM to protect exposed cysteine residues. One microgram of trypsin was added and the digestion was performed for 8 h at 37 °C. […] Each full MS spectrum acquired with a 70,000 resolution was followed by 12 MS/MS spectra, where the 12 most abundant multiply charged ions were selected for MS/MS sequencing. Peptides were identified using Peaks 8.0 (Bioinformatics Solution Inc.) and peptide sequences were blasted against the Human Uniprot database. Tolerance was set at 10 ppm for precursor and 0.01 Da for fragment ions during data processing. For the post-translational modification of proteins, occurrence of carbamidomethylation (C), oxidation (M), deamidation (NQ) was considered as well as addition of TQ (C, K), Poloxin (K, C, H), and vinyl sulfone (C, H, K) when needed.

His-PBD326-603 [3] = target: T1, His-PBD326-603; assay: covalent reaction with the PBD by SDS-PAGE; design: His-PBD326-603 was expressed in E.coli BL21; made in house; host or cells: E. coli BL21; conditions: 2.5 mM, 3-4 h
Procedure: Vinyl sulfones are reactive species that can alkylate substrates as a result of a nucleophilic attack on the distal carbon of the vinyl group.
Membranes were blocked with TBS-Tween 0.1% containing 5% of dry milk powder, then incubated with anti-Plk1 (F-8; Santa Cruz Biotechnologies Inc.) or with a 6x-His epitope tag antibody (Invitrogen; gift from Gregory Emery). HRP-conjugated goat anti-mouse IgG (Jackson ImmunoResearch Laboratories inc.) was used and TBS-Tween 0.1% was used for the washes before and after the secondary antibody. […] Gels were imaged using a ChemiDoc MP system (BioRad).

[4] = target: T2, Human Plk1 full length protein (human, UniProt P53350 1-603); assay: fluorescence polarisation; FITC-Map peptide with the PBD or full-length Plk1 (Supplementary Fig. S3); compounds tested up to 100 uM; conditions: both partners purified
T2 construct: Polo-like kinase 1 (Plk1), human, full length protein; also called full-length Plk1; whole Plk1; source: bought: Abcam
T2 sequence (P53350 whole entry): as the sequence (P53350 whole entry) above

human GST-PBD_(367-603) = target: T3, human GST-PBD_(367-603) (human, UniProt P53350 367-603); assay: fluorescence polarisation; competition: FITC-phosphopeptide 10 nM and GST-PBD 367-603 at 38 nM (EC65), unlabeled phosphopeptide at increasing concentrations; FP buffer; conditions: both partners purified
T3 construct: also called Polo-Box Domain of Plk1; source: bought: Sigma-Aldrich
T3 sequence (P53350 367-603): as the sequence (P53350 367-603 limits assumed) above

In the case of CC1=CC(=O)C(C(C)C)=CC1=O [TQ, Thymoquinone], the “2 > pericentrin foci (percentage of cells)” value (HeLa cells) is reported as 33 ± 9%, the “Disorganized spindles (percentage of cells)” value (HeLa cells) is reported as 56 ± 8% and the “time to completion of reaction with amino-protected cysteine” value [1] is reported as “approximately 10 minutes”. The “concentrations required to disrupt mitosis and induce apoptosis” value (mitosis) was “high micromolar concentrations”.

For O=c1c(O)cccc2cc(O)c(O)c(O)c12 [PPG, purpurogallin, reference compound], the “2 > pericentrin foci (percentage of cells)” value (HeLa cells) was 7 ± 4%, the “Disorganized spindles (percentage of cells)” value (HeLa cells) was 41 ± 6% and the “disruption of the PBD-Map interaction in FP” value (PBD of Plk1) was “disrupted the PBD-Map interaction”. The “concentrations active in vitro” value (PBD) was “low micromolar concentrations”, the concentrations impacting mitosis (mitosis) was “high micromolar concentrations” and the “Average-Beads (mean luminescence)” value (Plk1-Map interaction; 10-25 μM, 2 h) was 301,042. The “Relative Luminescence Unit” value (Plk1-Map interaction; mean divided by maximum mean of the compounds) was 0.351, the “Luminescence on beads, duplicate wells” value (Plk1-Map interaction; raw data, 10-25 μM, 2 h) was 290,044 and 312,040 and the IC50 (GST-PBD367-603 of Plk1; IC50 in FP, GST-PBD367-603 38 nM, 1 h pre-incubation, FITC-phosphopeptide 10 nM, Fig. 4C) was 126 µM.

In the case of C=CS(=O)(=O)c1cc(C(F)(F)F)cc(C)n1 [Cpd 161, 2-methyl-4-(trifluoromethyl)-6-(vinylsulfonyl) pyridine], the “time to completion of reaction with amino-protected cysteine” value [1] is reported as “approximately 10 minutes”, the “time to completion of reaction with amino-protected lysine” value [1] is reported as “approximately 10 minutes” and the “alkylated residues very near the phosphopeptide binding site” value (His-PBD326-603 [2]) is reported as “His489; also recorded: Lys492”. The “residues of the PBD found alkylated” value (His-PBD326-603 [2]; 2.5 mM TQ, 2.5 mM Cpd 161 or 250 μM Poloxin, 3 hours) was “cysteines, lysines and histidines”, the IC50 (GST-PBD367-603 of Plk1; FP - IC50 (μM), Table S3) was 8.3 ± 2.6 µM and the “activity in the FP assay” value (GST-PBD367-603 of Plk1; SAR) was “showed the same activity as Cpd 16”. The “mobility shift of the PBD in SDS-PAGE” value (His-PBD326-603 [3]) was “appeared higher in the gel, a few kDa above the protein treated with DMSO alone”.

B1: FITC-GIAVPDEREFDIEADMRPHEL (Map peptide) (peptide)
peptide: {FITC}-GIAVPDEREFDIEADMRPHEL
notes: small peptide derived from Drosophila Map205; also called small peptide derived from Map205 coupled to FITC; source: synthetic peptide (Bio Basic inc., >95% pure)
B1: binds [4].

B2: unlabeled phosphopeptide GPMQS{T}PLNG (peptide)
peptide: GPMQS[pT]PLNG
notes: as m7 but without FITC in N-terminal; also called corresponding unlabeled phosphopeptide; equivalent unlabeled peptide; source: synthetic peptide (Bio Basic inc., >95% pure)
B2: binds (human GST-PBD_(367-603)).

B3: FITC-GPMQS{T}PLNG (FITC-labeled PBD-binding phosphopeptide) (peptide)
peptide: {FITC}-GPMQS[pT]PLNG
notes: also called FITC-phosphopeptide; source: synthetic peptide (Bio Basic inc., >95% pure)
B3: binds (human GST-PBD_(367-603)).

— PMC5118709, “Identification of Polo-like kinase 1 interaction inhibitors using a novel cell-based assay” (Scientific Reports, 2016)
